Data set [1] in a line: Fatty acid content after 12 weeks administration to rats. Format: in vivo. As to conditions: administration to rats for 12 weeks.
Data set [2] in a line: Body weight of normal rats after 12 weeks (Example 6). It counts as in vivo. As to conditions: male Wistar rats, oral, 12 weeks of treatment. Here is the method:
2 groups of 6 male Wistar Rats were randomly selected, and studied for weight development over a period of 12 week. The body weight of each Wistar rat was measured at the start of the experiment. All animals in both groups received individually the same amount of food (nutrition) during the experimental period of 12 weeks. All animals in one of the groups were orally administrated with the medicament comprising TTA. The other group was the control group (CMC). After the 12 week period the body weight of rats were measured again.

The nature of data set [3]: Hepatic levels of triacylglycerol (Example 17). It counts as in vivo, Wistar rats. Conditions: fed 6 days, no prefeeding; TTA 150 mg/kg/day, TTP 300 mg/kg/day. On the procedure: Male Wistar rats had free access to water and rat maintenance chow. They were fed palmitic acid or fatty acid analogues suspended in 0.5% CMC for 6 days. In some experiments TTA or TTP were fed for 3 days before feeding both for 6 days. At the end of the experiment the rats were fasted overnight, killed, the liver removed and homogenized. Triacylglycerol was measured in the homogenate.

Data set [4] in a line: 28 days toxicity study in dogs (GLP). It counts as in vivo. An excerpt:
A 28 days toxicity study in dogs according to GLP guide-lines has been performed by Corning Hazleton (Europe), England. […] Some lipid related parameters were lowered in the animals given high dosages. This is consistent with the pharmacological activity of TTA.

Data set [5] in a line: Lipid lowering effect in obese Zucker fa/fa rats (Example 3). Format: in vivo. Conditions: 300 mg/day/kg by gavage once daily for 10 days; control palmitic acid. On the procedure: (§1) Glucose (GLU, Boehringer Mannheim, Germany), free fatty acids (NEFA, C ACS-ACOD kit; Wako Chemicals, Dalton, USA) and b-hydroxybutyrate (310-A kit; Sigma Diagnostics Inc., St. Louis, USA) concentrations were measured using enzymatic methods. Insulin concentrations were determined with radioimmunoassay by (CIS bio International, Gif sur Yvette, France) using rat insulin as standard in the Zucker rats. In the Wistar Charles River rats, plasma glucose concentrations were measured with the aid of Beckman Glucose Analyzer (Fullerton, Calif., USA). Plasma insulin levels were measured using a RIA kit from Linco Research Inc. (St. Charles, Mo., USA). Phospholipids were measured by the enzymatic method of bioMérieux, Marcy-l{grave over ( )}Etoile, France, Triacylglycerol by the Technicon Method no. SA4-0324L90, USA and Cholesterol by the Technicon Method no. SA4-0305L90, USA.
Male obese Zucker fa/fa rats, weighing 100 g at the start of the experiment, were housed in pairs in metal wire cages in a room maintained at 12 h light-dark cycles and a constant temperature of 20±3° C. The animals were acclimatised for at least one week under these conditions before the start of the experiment.
TTA (tetradecylthioacetic acid) prepared in accordance with procedure described previously, and palmitic acid (control), was suspended in 0.5% (w/v) carboxymethyl cellulose (CMC). Six animals were used in both groups. TTA (tetradecylthioacetic acid) and palmitic acid were administered at a dose of 300 mg/day/kg body weight, by gastric intubation (gavage) once daily for 10 days. The rats were fasted for 2 hours before termination of the experiment. Blood and organs were collected. Lipid concentrations in plasma were determined using an autoanalyzer, as described in the method section.

Data set [6] is described as follows: Blood insulin and glucose in 4 month old obese Zucker (fa/fa) rats (Example 13). Format: in vivo. Conditions: standard chow with 0.15% TTA, 21 days. On the procedure: as §1
The rats were given a standard chow diet, either with (n=5) or without (n=6) 0.15% TTA. Following 21 days of treatment, blood was collected and the levels of insulin and glucose measured. Data are means±S.D.

Data set [7] in a line: Blood insulin and glucose in 5 weeks old Zucker (fa/fa) rats (Example 13). As to conditions: 300 mg/kg/day by oral gavage, 11 days. Format: in vivo. Here is the method:
as §1
The rats were administered TTA at a dose of 300 mg/kg/day suspended in 0.5% CMC (n=6) by oral gavage. Following 11 days of treatment, rats were killed by cervical dislocation. Blood was collected and the levels of insulin and glucose measured as indicated in the method section. Data are means±S.D.

Data set [8] can be described thus: Plasma free fatty acids and ketone bodies in old obese Zucker rats. Format: in vivo, obese Zucker (fa/fa) rats. Conditions: 21 week-old male rats, standard diet enriched with 0.15% TTA for 15 days; means ± SD. On the procedure:
as §1
Data are means±SD of six animals in both the control- and the experimental group. Free fatty acids (FFA) and ketone bodies (4-hydroxy butyrate)were measured in plasma and 3-hydroxy-3-methylglutaryl (HMG)—CoA synthase activities were measured in mitochondrial fractions prepared from the liver from 21 week-old male obese Zucker (fa/fa) rats given either a standard diet (control) or a standard diet enriched with 0.15% TTA for 15 days.

Data set [9] in a line: High fat diet induced hyperinsulinemia (Example 11). Conditions: HF diet supplemented with TTA, 21 days, overnight fast. Format: in vivo, Wistar Charles River rats. On the procedure: as §1
Rats weighing 280-360 g were divided into 3 groups (n=6) and fed with three different diets: standard rat chow, high fat diet (HF) and HF supplemented with TTA. After 21 days on their respective diets, blood was collected after an overnight fast from the tail vein. The data are shown as mean±SEM. Results were analysed by ANOVA and different letters denote statistical significance (p<0.05).

The nature of data set [10]: Body weight gain, liver and adipose tissue weight in young obese Zucker rats (Example 9). Format: in vivo, obese Zucker (fa/fa) rats. As to conditions: 5 week-old male rats, TTA 300/kg/day in 0.5% CMC, 11 days; means ± SD. Here is the method: The obese Zucker (fa/fa) rats used in this study were bred at the U 465 INSERM animal facility from pairs originally provided by the Harriet G. Bird Laboratory (Stow, Mass., USA). Unless otherwise stated, the animals were maintained under a constant light-dark cycle (light from 7:00 a.m. to 7:00 p.m.) at 21±1° C. and were given free access to food and water. Three rats were housed per cage. Weight gains were recorded daily.
5 week-old male obese Zucker (fa/fa) rats fed with TTA, 300/kg/day suspended in 0.5% CMC. Control animals received CMC only. Following 11 days of treatment, rats were killed by cervical dislocation, liver and epididymal adipose tissue pads were dissected out and weighed. Data are means±SD of 6 animals in the control- and 6 animals in the experimental group.

Data set [11] in a line: Plasma lipids after feeding moderate doses to animals. Format: in vivo, rats, mice, rabbits and dogs. Conditions: within days of treatment.
Data set [12] is described as follows: Lipid lowering effect in normal Wistar rats (Example 4). It counts as in vivo. Conditions: gavage once daily for 7 days; dose mg/day/kg body weight: TSA 15, EPA 1500, TTA 150.
Experimental: Male Wistar rats, weighing 180-200 g at the start of the experiment, were housed individually in metal wire cages in a room maintained at 12 h light-dark cycles and a constant temperature of 20±3° C. The animals were acclimatised for one week under these conditions before the start of the experiments.
TTA, TSA and eicosapentaenoic acid (EPA) were suspended in 0.5% (w/v) carboxymethyl cellulose (CMC). Six animals were used for each treatment, and a 0.5% CMC solution was administrated to the rats as control. After administration of the test compound, the rats were fasted for 12 hours and anaesthetised with haloethan. The EPA and the fatty acid derivatives were administered by gastric intubation (gavage) once daily for 7 days. Blood samples were collected by cardiac puncture, and lipid concentrations in plasma were determined as outlined in the method section.

On to Tetradecylthioacetic acid [TTA], for which, in data set [1], the “Hepatic and plasma content of monounsaturated fatty acids (mainly oleic acid)” value was “nearly doubled”; the “Polyunsaturated fatty acids (mainly linoleic acid and DHA)” value was “decreased”. Also, the Body weight gain in data set [2] was determined as 234 ± 20 g. Also, in data set [3], the “Hepatic TG (triacylglycerol)” value is 7.7 ± 2.9 µmol/g. Moreover, the Lipid related parameters result in [4] (animals given high dosages) was “lowered”. For the same substance, the Body weight entry in [4] (dose level of 500 mg/kg/day) is “body weight loss”. Also, the Evidence of toxicity entry in data set [4] (dose levels of 50 or 500 mg/day/kg, 28 days) was “no evidence of toxicity”. The Tolerability result in data set [4] (oral administration, dose levels up to 500 mg/kg/day, 28 days) is on record as “generally well tolerated”. Also, in data set [5], the “Decreased lipid level in plasma: Cholesterol” value is given as 73 % of control, the “Decreased lipid level in plasma: Phospholipids” value was 71 % of control and the “Decreased lipid level in plasma: Triglycerides” value was 72 % of control. Moreover, in data set [6], the “Blood glucose concentration (FIG. 6)” value is reported as “reduces” and the “Blood insulin concentration (FIG. 6)” value is given as “reduces”. Besides, in data set [7], the “Reduction of blood concentration of glucose (FIG. 5)” value was ~15% and the “Reduction of blood insulin concentration (FIG. 5)” value is reported as ~40%. For the same substance, in [8], the “4-OH butyrate (plasma ketone bodies)” value was 3.44 ± 1.37 mmol/L and the “FFA (plasma free fatty acids)” value is listed as 0.53 ± 0.21 mEq/L. The “High fat diet-induced hyperinsulinemia (FIG. 3)” value in data set [9] is listed as “prevents high fat diet-induced hyperinsulinemia”. Besides, in data set [10], the Body weight gain worked out at 6.23 ± 0.28 g/day. For the same substance, in [11], the “Plasma cholesterol and triacylglycerol levels” value was “decreased”. Also, in [12], the “Plasma lipids: cholesterol” value is 30 % reduction of control and the “Plasma lipids: triglycerides” value is 45 % reduction of control.

Values taken from patent US6441036B1 (priority 1998, dated 2002).
